Measured values as given in PubChem BioAssay (NCI).
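Tested at 5 concentrations; 48 h exposure; 96-well plates; endpoints linearly interpolated, else capped at highest concentration. Here, GI50 denotes the concentration required for 50% inhibition of growth. TGI marks complete inhibition of growth.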

How the values were obtained:
Experiment in all cases: inhibition of tumour cell growth, NCI panel, 48 h
HS 578T breast = system: HS 578T breast
DU-145 prostate = system: DU-145 prostate
MDA-MB-231 breast = system: MDA-MB-231 breast
BT-549 breast = system: BT-549 breast
MCF7 breast = system: MCF7 breast
MDA-N = system: MDA-N

O=C(/C=C/c1ccccc1)c1c[nH]c2ccccc2c1=O
GI50 (HS 578T breast): 2.32 µM
TGI (HS 578T breast): 6.34 µM
GI50 (DU-145 prostate): 1.57 µM
TGI (DU-145 prostate): 6.34 µM
GI50 (MDA-MB-231 breast): 4.22 µM
TGI (MDA-MB-231 breast): 18.7 µM
GI50 (BT-549 breast): 4.84 µM
TGI (BT-549 breast): 17.8 µM
GI50 (MCF7 breast): 2.33 µM
TGI (MCF7 breast): 12.6 µM

Cc1csc(/C=N/NC(=O)c2nnn(-c3ccnc4c(C(F)(F)F)cccc34)c2C)c1
GI50 (HS 578T breast): > 100 µM
TGI (HS 578T breast): > 100 µM
GI50 (DU-145 prostate): > 100 µM
TGI (DU-145 prostate): > 100 µM
GI50 (MDA-MB-231 breast): 31.7 µM
TGI (MDA-MB-231 breast): > 100 µM
GI50 (BT-549 breast): > 100 µM
TGI (BT-549 breast): > 100 µM
GI50 (MCF7 breast): > 100 µM
TGI (MCF7 breast): > 100 µM

COc1cc2ccccc2c2cc([N+](=O)[O-])oc12
TGI (HS 578T breast): 10.1 µM
TGI (DU-145 prostate): 7.49 µM
TGI (MDA-N): 0.849 µM
TGI (MDA-MB-231 breast): 5.8 µM
TGI (BT-549 breast): 7.16 µM
TGI (MCF7 breast): 15.8 µM

CC[C@@]1(OC(=O)CN)C(=O)OCc2c1cc1n(c2=O)Cc2cc3cc4c(cc3nc2-1)OCO4
GI50 (HS 578T breast): 0.399 µM
TGI (HS 578T breast): > 100 µM
GI50 (DU-145 prostate): < 0.01 µM
TGI (DU-145 prostate): < 0.012 µM
GI50 (MDA-N): < 0.01 µM
TGI (MDA-N): 2.27 µM
GI50 (MDA-MB-231 breast): 0.787 µM
TGI (MDA-MB-231 breast): > 23.7 µM
GI50 (BT-549 breast): 0.0157 µM
TGI (BT-549 breast): 0.552 µM
GI50 (MCF7 breast): < 0.01 µM
TGI (MCF7 breast): > 100 µM

Cc1cc(N2CCN(C)CC2)nc(NCc2cc(Nc3ccnc4cc(Cl)ccc34)ccc2F)n1
GI50 (HS 578T breast): 2.82 µM
TGI (HS 578T breast): 7.97 µM
GI50 (DU-145 prostate): 2.52 µM
TGI (DU-145 prostate): > 100 µM
GI50 (BT-549 breast): 2.13 µM
TGI (BT-549 breast): 4.64 µM
GI50 (MCF7 breast): 0.334 µM
TGI (MCF7 breast): 2.75 µM

COc1cccc(C(=O)Nc2ccc(CN3CCc4nc5cc(OC)c(OC)cc5cc43)cc2)c1
GI50 (HS 578T breast): 3.87 µM
TGI (HS 578T breast): 34 µM
GI50 (DU-145 prostate): 4.55 µM
TGI (DU-145 prostate): 67.9 µM
GI50 (MDA-MB-231 breast): 2.59 µM
TGI (MDA-MB-231 breast): 11 µM
GI50 (BT-549 breast): 5.32 µM
TGI (BT-549 breast): 22.8 µM
GI50 (MCF7 breast): 3.19 µM
TGI (MCF7 breast): 20.5 µM

N#CC(C#N)=Cc1c(-c2ccccc2)[nH]c2ccccc12
GI50 (HS 578T breast): 2.31 µM
TGI (HS 578T breast): 8.49 µM
GI50 (DU-145 prostate): 3.2 µM
TGI (DU-145 prostate): 17.9 µM
GI50 (MDA-MB-231 breast): 1.42 µM
TGI (MDA-MB-231 breast): 30.3 µM
GI50 (BT-549 breast): 8.45 µM
TGI (BT-549 breast): > 100 µM
GI50 (MCF7 breast): 1.07 µM
TGI (MCF7 breast): > 47.2 µM

O=S(=O)(Nc1cc(Br)c(O)c2ccccc12)c1ccc(F)cc1
GI50 (HS 578T breast): 2.75 µM
TGI (HS 578T breast): 9.98 µM
GI50 (DU-145 prostate): 1.83 µM
TGI (DU-145 prostate): 3.32 µM
GI50 (MDA-MB-231 breast): 2.1 µM
TGI (MDA-MB-231 breast): 5.5 µM
GI50 (BT-549 breast): 8.45 µM
TGI (BT-549 breast): 21.2 µM

NC1=NC(c2ccc(Cl)cc2)N(c2ccc(S(=O)(=O)Nc3ncccn3)cc2)C(N)=N1 (stereo not drawn)
TGI (HS 578T breast): > 100 µM
TGI (DU-145 prostate): > 100 µM
TGI (MDA-N): > 100 µM
TGI (MDA-MB-231 breast): > 100 µM
TGI (BT-549 breast): > 100 µM
TGI (MCF7 breast): > 100 µM

COc1cc(/C=N/Nc2ncnc3c2cnn3C(C)C)ccc1O
GI50 (HS 578T breast): 5.04 µM
TGI (HS 578T breast): 24.8 µM
GI50 (DU-145 prostate): 8.03 µM
TGI (DU-145 prostate): > 25 µM
GI50 (MDA-MB-231 breast): 6.27 µM
TGI (MDA-MB-231 breast): > 25 µM
GI50 (BT-549 breast): > 20.4 µM
TGI (BT-549 breast): > 25 µM
GI50 (MCF7 breast): 4.68 µM
TGI (MCF7 breast): 16.1 µM

Cc1onc(-c2c(F)cccc2Cl)c1-c1ncc(-c2ccc(Cl)cc2)o1
GI50 (HS 578T breast): 14.1 µM
TGI (HS 578T breast): > 100 µM
GI50 (DU-145 prostate): 14.6 µM
TGI (DU-145 prostate): > 100 µM
GI50 (MDA-MB-231 breast): 6.5 µM
TGI (MDA-MB-231 breast): > 100 µM
GI50 (BT-549 breast): 6.5 µM
TGI (BT-549 breast): > 100 µM
GI50 (MCF7 breast): 4.49 µM
TGI (MCF7 breast): > 100 µM

Cc1cc2cccnc2c2ncccc12
GI50 (HS 578T breast): 4.04 µM
TGI (HS 578T breast): 47.9 µM
GI50 (DU-145 prostate): 1.02 µM
TGI (DU-145 prostate): > 100 µM
GI50 (MDA-MB-231 breast): 0.74 µM
TGI (MDA-MB-231 breast): > 100 µM
GI50 (BT-549 breast): 2.67 µM
TGI (BT-549 breast): 41.9 µM
GI50 (MCF7 breast): 2.62 µM
TGI (MCF7 breast): > 100 µM

CN(Cc1cnc(N)nc1N)c1ccc(C(=O)O)cc1
GI50 (HS 578T breast): > 100 µM
TGI (HS 578T breast): > 100 µM
GI50 (DU-145 prostate): > 100 µM
TGI (DU-145 prostate): > 100 µM
GI50 (MDA-MB-231 breast): > 100 µM
TGI (MDA-MB-231 breast): > 100 µM
GI50 (BT-549 breast): > 100 µM
TGI (BT-549 breast): > 100 µM
GI50 (MCF7 breast): > 100 µM
TGI (MCF7 breast): > 100 µM

O=C(/C=C1\C(=O)N(Cc2ccc([N+](=O)[O-])cc2)c2ccccc21)c1ccc(OCCN2CCCCC2)cc1
GI50 (HS 578T breast): 1.71 µM
TGI (HS 578T breast): 6.09 µM
GI50 (DU-145 prostate): 1.56 µM
TGI (DU-145 prostate): 2.93 µM
GI50 (MDA-MB-231 breast): 1.3 µM
TGI (MDA-MB-231 breast): 2.67 µM
GI50 (BT-549 breast): 1.64 µM
TGI (BT-549 breast): 3 µM
GI50 (MCF7 breast): 1.43 µM
TGI (MCF7 breast): 4.1 µM

CN(CCC#N)c1ccc(/C=C(\C#N)c2cccc(C(F)(F)F)c2)cc1
GI50 (HS 578T breast): 4.3 µM
TGI (HS 578T breast): > 100 µM
GI50 (DU-145 prostate): 11.3 µM
TGI (DU-145 prostate): > 100 µM
GI50 (MDA-MB-231 breast): 4.56 µM
TGI (MDA-MB-231 breast): > 100 µM
GI50 (BT-549 breast): 3.28 µM
TGI (BT-549 breast): 34.3 µM
GI50 (MCF7 breast): 0.544 µM
TGI (MCF7 breast): > 100 µM

COc1ccc(Cl)cc1Nc1nc(C(F)(F)F)ccc1C(=O)N/N=C/c1ccc([N+](=O)[O-])cc1
GI50 (HS 578T breast): 2.57 µM
TGI (HS 578T breast): 62.9 µM
GI50 (DU-145 prostate): 1.27 µM
TGI (DU-145 prostate): 3.21 µM
GI50 (MDA-MB-231 breast): 1.49 µM
TGI (MDA-MB-231 breast): 4.38 µM
GI50 (MCF7 breast): 2.2 µM
TGI (MCF7 breast): 7.85 µM
